The target of data set [1] is T1, Recombinant Hepatic Lipase (Homo sapiens, UniProt P11150).
T1 construct: made in house; host or cells: AV12 cells
T1 sequence (P11150 23-499): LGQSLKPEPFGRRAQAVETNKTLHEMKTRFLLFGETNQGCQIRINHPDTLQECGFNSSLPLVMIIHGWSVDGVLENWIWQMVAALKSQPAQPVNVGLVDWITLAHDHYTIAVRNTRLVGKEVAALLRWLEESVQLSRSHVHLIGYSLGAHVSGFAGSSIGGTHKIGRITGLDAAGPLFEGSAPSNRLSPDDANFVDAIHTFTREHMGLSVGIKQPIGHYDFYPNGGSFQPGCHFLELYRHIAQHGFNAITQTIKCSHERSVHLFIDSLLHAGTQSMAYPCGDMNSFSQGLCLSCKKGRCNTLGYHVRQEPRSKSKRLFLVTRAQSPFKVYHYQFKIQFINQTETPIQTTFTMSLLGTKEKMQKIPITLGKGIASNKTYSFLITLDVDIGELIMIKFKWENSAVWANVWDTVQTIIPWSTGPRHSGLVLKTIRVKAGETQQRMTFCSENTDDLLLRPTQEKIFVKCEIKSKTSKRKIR
In words: Hepatic Lipase Phospholipase Assay (ThioPEG substrate, DTNB read at 412 nm). Format: biochemical. The following applies: recombinant HL 12.5 nM, 37° C., pH 8.3, read-out: IC50 (nM), hepatic lipase inhibition assay. How it is done:
Hepatic Lipase Phospholipase Assay
Efficacy was determined by testing various compounds of the invention in a hepatic lipase and/or endothelial lipase assay discussed below, and disclosed in U.S. patent application Ser. No. 09/609, 871 filed Jul. 3, 2000 incorporated herein in its entirety for U.S Patent office purposes.
• Substrate Buffer A: 100 mM Hepes, pH 8.3 at 37° C. • Substrate Buffer B: 100 mM Hepes, pH 8.3 at 37° C. with 6.83 mM Triton X100 • ThioPEG: Molecular wt. of 540 • Recombinant Hepatic Lipase • Thiophospholipid: about 0.42 mM thiophospholipid in chloroform • DTNB Solution: about […] DTNB in DMSO (dimethyl sulfoxide) Hepes Buffer A
For Hepes Buffer A,.there is 2.4 g Hepes/100 mL water. Therefore 36 grams of Hepes is dissolved in 1500 mL of water. The mix solution's pH is adjusted to pH83 at 37° C. and brought up to 1500 mL with water. 500 mL of Buffer A is retained for the Protein Buffer.
To the remaining 1000 mL of Hepes Buffer A, 4.49 g of Triton X-100 is added and then the combination mixed on a stir plate. It is optimal that stock Buffer A not be too cold or Triton X-100 will take a long time to go into solution […]
The enzyme is stored at −80° C. in 100 or 50 μL portions. […] The enzyme should then be stored on ice until ready to use. […]

The term IC50 denotes the midpoint of a concentration-inhibition curve. `O=C(NCc1ccccc1)n1oc2ccccc2c1=O`: the IC50 in data set [1] was 60 nM.

The melting point is the temperature, or range, at which the solid turns liquid. `CCNC(=O)n1oc2ccccc2c1=O` [Example 1, 3-Oxo-3H-benzo[d]isoxazole-2-carboxylic acid ethylamide]: the melting point lay within 112 to 113 °C.

Take `CCCCNC(=O)n1oc2ccccc2c1=O` [Example 2, 3-Oxo-3H-benzo[d]isoxazole-2-carboxylic acid butylamide]: the melting point is 64 to 65 °C.

As to `CCCCCCNC(=O)n1oc2ccccc2c1=O` [Example 3, 3-Oxo-3H-benzo[d]isoxazole-2-carboxylic acid hexylamide], the melting point lay in the range of 46 to 48 °C.

`CC(C)CCCCNC(=O)n1oc2ccccc2c1=O` [Example 4, 3-Oxo-3H-benzo[d]isoxazole-2-carboxylic acid (5-methyl-hexyl)amide] displayed a melting point of 73 to 75 °C.

The compound `CCCCCCCCNC(=O)n1oc2ccccc2c1=O` [Example 5, 3-Oxo-3H-benzo[d]isoxazole-2-carboxylic acid octylamide] returned a melting point of 47 to 48 °C.

Compound `O=C(NCC1CCCCC1)n1oc2ccccc2c1=O` [Example 6, 3-Oxo-3H-benzo[d]isoxazole-2-carboxylic acid cyclohexylmethyl-amide] yielded a melting point of 82 to 84 °C.

For `Cc1ccccc1CNC(=O)n1oc2ccccc2c1=O` [Example 8, 3-Oxo-3H-benzo[d]isoxazole-2-carboxylic acid 2-methyl-benzylamide], the melting point is 154 to 155 °C.

Consider `Cc1cccc(CNC(=O)n2oc3ccccc3c2=O)c1` [Example 9, 3-Oxo-3H-benzo[d]isoxazole-2-carboxylic acid 3-methyl-benzylamide], for which the melting point fell in the range of 110 to 112 °C.

As to `O=C(NCc1ccccc1C(F)(F)F)n1oc2ccccc2c1=O` [Example 11, 3-Oxo-3H-benzo[d]isoxazole-2-carboxylic acid 2-trifluoromethyl-benzylamide], the melting point lay within 139 to 141 °C.

In turn, `O=C(NCc1ccccc1F)n1oc2ccccc2c1=O` [Example 12, 3-Oxo-3H-benzo[d]isoxazole-2-carboxylic acid 2-fluoro-benzylamide] had a melting point of 142 to 143 °C.

`CCc1ccccc1CNC(=O)n1oc2ccccc2c1=O` [Example 14, 3-Oxo-3H-benzo[d]isoxazole-2-carboxylic acid 2-ethyl-benzylamide] yielded a melting point of 107 to 109 °C.

With `CCc1cccc(CNC(=O)n2oc3ccccc3c2=O)c1` [Example 15, 3-Oxo-3H-benzo[d]isoxazole-2-carboxylic acid 3-ethyl-benzylamide], the melting point lay in the range of 72 to 73 °C.

`CC(C)(C)c1ccc(CNC(=O)n2oc3ccccc3c2=O)cc1` [Example 16, 3-Oxo-3H-benzo[d]isoxazole-2-carboxylic acid 4-tert-butyl-benzylamide] yielded a melting point of 123 to 125 °C.

With `Cc1cccc(C(C)C)c1CNC(=O)n1oc2ccccc2c1=O` [Example 17, 3-Oxo-3H-benzo[d]isoxazole-2-carboxylic acid 2-isopropyl-6-methyl-benzylamide], the melting point is 112 to 114 °C.

`COc1cccc(CNC(=O)n2oc3ccccc3c2=O)c1` [Example 18, 3-Oxo-3H-benzo[d]isoxazole-2-carboxylic acid 3-methoxy-benzylamide] yielded a melting point of 99 to 100 °C.

As to `COc1ccc(CNC(=O)n2oc3ccccc3c2=O)cc1` [Example 19, 3-Oxo-3H-benzo[d]isoxazole-2-carboxylic acid 4-methoxy-benzylamide], the melting point lay in the range of 140 to 141 °C.

On to `CCOc1ccccc1CNC(=O)n1oc2ccccc2c1=O` [Example 20, 3-Oxo-3H-benzo[d]isoxazole-2-carboxylic acid 2-ethoxy-benzylamide], for which the melting point lay within 110 to 112 °C.

`CCOc1cccc(CNC(=O)n2oc3ccccc3c2=O)c1` [Example 21, 3-Oxo-3H-benzo[d]isoxazole-2-carboxylic acid 3-ethoxy-benzylamide] had a melting point of 89 to 90 °C.

As to `CCOc1ccc(CNC(=O)n2oc3ccccc3c2=O)cc1` [Example 22, 3-Oxo-3H-benzo[d]isoxazole-2-carboxylic acid 4-ethoxy-benzylamide], the melting point is 110 to 112 °C.

Take `O=C(NCCc1ccccc1)n1oc2ccccc2c1=O` [Example 23, 3-Oxo-3H-benzo[d]isoxazole-2-carboxylic acid phenethyl-amide]: the melting point lay within 106 to 107 °C.

These data come from patent US7217727B2, “Phospholipase inhibitors” (Eli Lilly and Company, priority 2003, dated 2007).
